From patent publication US20210221822A1, “TRICYCLIC DERIVATIVES INHIBITOR, PREPARATION METHOD, AND APPLICATIONS THEREOF” (Jiangsu Hansoh Pharmaceutical Group Co., Ltd., priority 2018, published 2021)

Tests used:
PI3Kα = molecular target: T1, PI3Kα (Homo sapiens, UniProt P42336); experiment: ADP-Glo lipid kinase assay, PI3Kα kinase activity; type: biochemical
T1 construct: purchased Promega V1721
Outline: (§1)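 ADP-Glo luminescence measured ADP formed by PI3Kα, β, γ or δ (0.1-2 nM working solution) with PIP2:3PS (50 μM added solution) and ATP in HEPES/MgCl2/NaCl/BSA buffer, 90 to 120 min at room temperature. % inhibition was set against DMSO and no-kinase controls, and IC50 came from a four-parameter fit.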

PI3Kβ = molecular target: T2, PI3Kβ (Homo sapiens, UniProt P42338); experiment: ADP-Glo lipid kinase assay, PI3Kβ kinase activity; type: biochemical; details: 0.4 nM enzyme, 90 min, 100 μM ATP
T2 construct: purchased Carna 11-102
T2 sequence (P42338 whole entry): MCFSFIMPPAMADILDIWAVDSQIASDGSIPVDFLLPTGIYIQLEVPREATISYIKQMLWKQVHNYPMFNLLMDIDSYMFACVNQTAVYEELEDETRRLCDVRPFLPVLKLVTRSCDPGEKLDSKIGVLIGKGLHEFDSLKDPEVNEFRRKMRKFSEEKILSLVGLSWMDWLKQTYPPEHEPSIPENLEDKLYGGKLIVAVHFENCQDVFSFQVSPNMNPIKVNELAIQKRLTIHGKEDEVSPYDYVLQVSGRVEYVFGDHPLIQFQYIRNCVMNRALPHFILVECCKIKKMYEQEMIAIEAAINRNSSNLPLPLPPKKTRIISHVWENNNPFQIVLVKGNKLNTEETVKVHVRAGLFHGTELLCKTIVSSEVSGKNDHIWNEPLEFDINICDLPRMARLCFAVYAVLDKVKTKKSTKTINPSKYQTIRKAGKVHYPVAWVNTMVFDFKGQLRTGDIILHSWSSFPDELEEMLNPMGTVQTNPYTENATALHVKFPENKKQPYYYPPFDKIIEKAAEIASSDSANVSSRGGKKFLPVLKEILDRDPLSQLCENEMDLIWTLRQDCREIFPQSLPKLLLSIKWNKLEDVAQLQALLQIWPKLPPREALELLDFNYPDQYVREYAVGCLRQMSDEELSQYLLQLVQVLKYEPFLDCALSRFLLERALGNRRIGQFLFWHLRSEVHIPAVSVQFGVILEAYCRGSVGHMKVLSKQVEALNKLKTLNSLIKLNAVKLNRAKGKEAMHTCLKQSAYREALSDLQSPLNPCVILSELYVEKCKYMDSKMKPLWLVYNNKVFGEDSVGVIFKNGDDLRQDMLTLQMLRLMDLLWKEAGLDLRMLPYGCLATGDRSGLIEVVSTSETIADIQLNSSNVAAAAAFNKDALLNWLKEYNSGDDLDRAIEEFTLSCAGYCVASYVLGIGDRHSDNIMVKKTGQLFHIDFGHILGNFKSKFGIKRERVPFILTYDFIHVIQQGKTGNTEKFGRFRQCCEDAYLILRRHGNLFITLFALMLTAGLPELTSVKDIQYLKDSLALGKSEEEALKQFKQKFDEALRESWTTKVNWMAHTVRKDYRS
T2 sequence (P27986 whole entry partner): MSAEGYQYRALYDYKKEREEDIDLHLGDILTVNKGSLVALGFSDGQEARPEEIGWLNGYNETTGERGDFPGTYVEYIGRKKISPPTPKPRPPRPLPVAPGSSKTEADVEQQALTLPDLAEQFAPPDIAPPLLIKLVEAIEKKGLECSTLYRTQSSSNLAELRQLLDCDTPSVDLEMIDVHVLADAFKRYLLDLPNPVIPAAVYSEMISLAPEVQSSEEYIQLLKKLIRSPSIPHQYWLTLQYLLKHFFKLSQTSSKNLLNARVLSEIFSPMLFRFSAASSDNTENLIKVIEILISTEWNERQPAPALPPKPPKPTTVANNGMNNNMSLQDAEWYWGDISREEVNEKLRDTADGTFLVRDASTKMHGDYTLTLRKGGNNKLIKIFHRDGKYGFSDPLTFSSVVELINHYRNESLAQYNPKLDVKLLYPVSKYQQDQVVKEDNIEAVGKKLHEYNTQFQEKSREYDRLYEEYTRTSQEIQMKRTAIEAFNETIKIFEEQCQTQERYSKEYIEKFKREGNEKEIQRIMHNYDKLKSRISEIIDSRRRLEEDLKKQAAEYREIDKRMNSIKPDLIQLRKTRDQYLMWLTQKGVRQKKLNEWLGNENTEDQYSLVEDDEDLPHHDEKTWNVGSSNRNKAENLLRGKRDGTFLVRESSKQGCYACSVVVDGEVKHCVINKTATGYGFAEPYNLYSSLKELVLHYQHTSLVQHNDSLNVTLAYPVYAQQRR
Outline: as §1

PI3Kγ = molecular target: T3, PI3Kγ (Homo sapiens, UniProt P48736); experiment: ADP-Glo lipid kinase assay, PI3Kγ kinase activity; type: biochemical; details: 0.4 nM enzyme, 120 min, 50 μM ATP
T3 construct: purchased Thermofisher PV4786
T3 sequence (P48736 whole entry): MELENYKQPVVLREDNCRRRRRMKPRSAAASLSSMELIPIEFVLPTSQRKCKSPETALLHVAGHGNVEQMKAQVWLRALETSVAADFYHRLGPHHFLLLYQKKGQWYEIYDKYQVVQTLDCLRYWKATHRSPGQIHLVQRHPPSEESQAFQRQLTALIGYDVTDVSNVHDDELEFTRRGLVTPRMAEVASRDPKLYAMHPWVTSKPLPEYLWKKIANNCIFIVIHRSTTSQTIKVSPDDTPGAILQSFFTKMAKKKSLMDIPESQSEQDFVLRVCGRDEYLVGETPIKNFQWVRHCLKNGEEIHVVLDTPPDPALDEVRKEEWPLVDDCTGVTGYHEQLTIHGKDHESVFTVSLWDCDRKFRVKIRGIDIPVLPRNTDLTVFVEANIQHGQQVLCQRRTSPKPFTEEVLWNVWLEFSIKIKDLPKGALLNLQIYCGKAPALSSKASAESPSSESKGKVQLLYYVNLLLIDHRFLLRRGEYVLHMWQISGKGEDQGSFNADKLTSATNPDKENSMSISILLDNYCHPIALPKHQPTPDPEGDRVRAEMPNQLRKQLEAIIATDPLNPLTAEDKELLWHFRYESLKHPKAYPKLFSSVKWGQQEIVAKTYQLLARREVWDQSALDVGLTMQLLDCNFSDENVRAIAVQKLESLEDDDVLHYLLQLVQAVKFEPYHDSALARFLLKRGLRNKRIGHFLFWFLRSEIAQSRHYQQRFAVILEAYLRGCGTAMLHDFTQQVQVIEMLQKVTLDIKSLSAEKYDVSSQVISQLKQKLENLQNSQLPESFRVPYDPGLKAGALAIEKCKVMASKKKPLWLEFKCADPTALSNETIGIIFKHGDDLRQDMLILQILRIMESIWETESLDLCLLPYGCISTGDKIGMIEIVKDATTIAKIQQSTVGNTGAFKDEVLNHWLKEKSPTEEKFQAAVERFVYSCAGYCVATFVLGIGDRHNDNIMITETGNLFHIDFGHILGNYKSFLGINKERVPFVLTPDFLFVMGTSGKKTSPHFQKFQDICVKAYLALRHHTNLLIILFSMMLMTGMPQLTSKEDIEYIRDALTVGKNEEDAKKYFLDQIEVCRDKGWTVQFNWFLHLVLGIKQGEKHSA
Outline: as §1

PI3Kδ = molecular target: T4, PI3Kδ (Homo sapiens, UniProt O00329); experiment: ADP-Glo lipid kinase assay, PI3Kδ kinase activity; type: biochemical; details: 0.1 nM enzyme, 90 min, 100 μM ATP
T4 construct: purchased Carna 11-103
T4 sequence (O00329 whole entry): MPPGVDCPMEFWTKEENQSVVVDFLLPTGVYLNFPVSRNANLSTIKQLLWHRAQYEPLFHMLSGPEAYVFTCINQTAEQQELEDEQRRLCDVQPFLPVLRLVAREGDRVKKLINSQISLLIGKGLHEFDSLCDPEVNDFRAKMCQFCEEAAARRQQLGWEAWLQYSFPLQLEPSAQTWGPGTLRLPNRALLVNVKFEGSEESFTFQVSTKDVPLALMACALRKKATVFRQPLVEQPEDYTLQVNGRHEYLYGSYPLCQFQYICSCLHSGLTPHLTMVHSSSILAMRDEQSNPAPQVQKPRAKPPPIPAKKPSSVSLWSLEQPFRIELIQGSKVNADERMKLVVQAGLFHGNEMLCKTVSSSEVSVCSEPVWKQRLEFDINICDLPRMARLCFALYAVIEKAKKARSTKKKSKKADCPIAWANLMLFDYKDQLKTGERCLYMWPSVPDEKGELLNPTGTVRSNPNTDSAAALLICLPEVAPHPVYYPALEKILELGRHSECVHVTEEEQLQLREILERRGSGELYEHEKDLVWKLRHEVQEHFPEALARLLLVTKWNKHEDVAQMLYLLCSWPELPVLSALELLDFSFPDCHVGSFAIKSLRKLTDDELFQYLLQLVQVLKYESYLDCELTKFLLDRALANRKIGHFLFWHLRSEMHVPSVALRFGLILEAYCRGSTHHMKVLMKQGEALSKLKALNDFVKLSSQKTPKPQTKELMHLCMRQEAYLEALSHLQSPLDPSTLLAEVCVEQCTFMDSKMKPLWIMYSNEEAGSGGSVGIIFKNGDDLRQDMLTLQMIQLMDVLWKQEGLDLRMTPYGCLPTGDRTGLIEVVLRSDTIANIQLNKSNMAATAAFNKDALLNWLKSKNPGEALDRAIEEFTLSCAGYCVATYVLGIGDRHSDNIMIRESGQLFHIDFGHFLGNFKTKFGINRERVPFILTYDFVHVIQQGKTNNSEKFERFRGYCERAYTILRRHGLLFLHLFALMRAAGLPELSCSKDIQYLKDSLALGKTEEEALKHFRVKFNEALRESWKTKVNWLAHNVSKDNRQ
T4 sequence (P27986 whole entry partner): as the sequence (P27986 whole entry partner) above
Outline: as §1

[1] = test system: PI3Kα mutant cancer cells HCC1954 (H1047R); experiment: Cell Titer-Glo proliferation inhibition, HCC1954; type: cell-based; details: Homo sapiens, 48 to 96 hours
Protocol: (§2) Experimental method: The proliferation inhibitory effect of the compounds of the examples on PI3Kα mutant cancer cell lines HCC1954, HGC-27 and MKN1 was determined by Cell Titer-Glo method. The cell lines were cultured in RPMI 1640 medium (Gibco #22400089) containing 10% FBS (Gibco #10091148) and 1% P/S (Hyclone #SV30010) at 37° C. and 5% CO2. Before the experiment, the cells were collected and counted, and then the cell density was adjusted. The cells were inoculated in a white 96-well plate (Corning #3610) at a density of 1000 to 10000 cells/well, and incubated in an incubator at 37° C., 5% CO2 overnight. The compound solution of different concentrations was added, and corresponding vehicle control was set at the same time. The cell plate was further incubated in an incubator at 37° C., 5% CO2 for 48 to 96 hours. The cell plate and its content were equilibrated to room temperature. 20 to 100 μL of Cell Titer-Glo solution (Promega #G7573) was added to each well, and the plate was shaked well and incubated at room temperature in the dark for 5 to 30 minutes. The chemiluminescence value was measured by the BioTek SynergyH1 microplate reader.
(§3) The percentage inhibition data of the well treated by the compounds of the examples was calculated through the vehicle control well on the plate {% inhibition rate=100−(test compound value/vehicle control value)×100}. The IC50 value was calculated by fitting the data of different concentrations and corresponding percentage inhibition rates to a four-parameter nonlinear logic formula with GraphPad prism.

[2] = test system: PI3Kα mutant cancer cells MKN1 (E545K); experiment: Cell Titer-Glo proliferation inhibition, MKN1; type: cell-based; details: Homo sapiens, MKN-1, 48 to 96 hours
Protocol: as §2, §3

[3] = test system: PI3Kα mutant cancer cells HGC-27 (E542K); experiment: Cell Titer-Glo proliferation inhibition, HGC-27; type: cell-based; details: Homo sapiens, 48 to 96 hours
Protocol: as §2, §3

T1 sequence (P42336 whole entry): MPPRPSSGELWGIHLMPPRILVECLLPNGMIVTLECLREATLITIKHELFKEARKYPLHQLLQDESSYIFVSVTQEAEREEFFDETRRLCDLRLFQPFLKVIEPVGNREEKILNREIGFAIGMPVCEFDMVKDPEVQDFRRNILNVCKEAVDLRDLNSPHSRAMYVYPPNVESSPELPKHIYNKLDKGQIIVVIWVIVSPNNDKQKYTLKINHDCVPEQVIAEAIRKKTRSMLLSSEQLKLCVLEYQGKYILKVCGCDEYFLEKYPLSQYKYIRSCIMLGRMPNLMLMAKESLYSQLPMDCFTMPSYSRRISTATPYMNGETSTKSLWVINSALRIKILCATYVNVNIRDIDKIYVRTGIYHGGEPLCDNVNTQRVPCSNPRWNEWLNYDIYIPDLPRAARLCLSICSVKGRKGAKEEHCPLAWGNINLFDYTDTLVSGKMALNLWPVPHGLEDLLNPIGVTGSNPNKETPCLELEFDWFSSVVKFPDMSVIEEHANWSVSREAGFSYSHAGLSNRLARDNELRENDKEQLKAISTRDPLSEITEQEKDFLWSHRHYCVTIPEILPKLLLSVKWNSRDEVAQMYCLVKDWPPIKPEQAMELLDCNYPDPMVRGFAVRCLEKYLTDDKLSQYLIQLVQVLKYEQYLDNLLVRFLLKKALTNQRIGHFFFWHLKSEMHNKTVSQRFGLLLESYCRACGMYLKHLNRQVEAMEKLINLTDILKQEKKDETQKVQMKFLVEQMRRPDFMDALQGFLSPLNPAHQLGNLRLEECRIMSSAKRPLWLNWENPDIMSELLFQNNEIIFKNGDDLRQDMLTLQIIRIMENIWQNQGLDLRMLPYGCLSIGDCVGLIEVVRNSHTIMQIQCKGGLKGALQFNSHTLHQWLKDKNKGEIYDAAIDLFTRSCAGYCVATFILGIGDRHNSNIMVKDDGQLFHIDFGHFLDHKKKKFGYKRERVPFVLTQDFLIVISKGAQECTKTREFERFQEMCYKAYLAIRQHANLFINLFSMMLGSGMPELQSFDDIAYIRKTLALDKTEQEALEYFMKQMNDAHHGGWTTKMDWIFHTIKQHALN
T1 sequence (P27986 whole entry partner): as the sequence (P27986 whole entry partner) above

C[C@H](Nc1ccc2c(c1)OCCn1cc(N3C(=O)SC[C@H]3CC#N)nc1-2)C(N)=O [Example 119, (S)-2-((2-((R)-4-(cyanomethyl)-2-oxothiazolidin-3-yl)-5,6-dihydrobenzo[f]imidazo[1,2-d][1,4]oxazepin-9-yl)amino)propanamide]
IC50 (PI3Kα; ADP-Glo, 0.1 nM enzyme, 120 min, 50 μM ATP): 2.4 nM | Selectivity of PI3Kα vs PI3Kβ (PI3Kα; ratio of IC50 PI3Kβ to IC50 PI3Kα): 170 | Selectivity of PI3Kα vs PI3Kγ (PI3Kα; ratio of IC50 PI3Kγ to IC50 PI3Kα): 48 | Selectivity of PI3Kα vs PI3Kδ (PI3Kα; ratio of IC50 PI3Kδ to IC50 PI3Kα): 30 | IC50 (PI3Kβ): 407 nM | IC50 (PI3Kγ): 116 nM | IC50 (PI3Kδ): 71 nM | IC50 [1]: 134 nM | IC50 [2]: 304 nM | IC50 [3]: 358 nM
